Values after ≈ are worked out from the molar mass of the structure shown. Values joined by “and” are separate entries in the source; they are usually repeats but may differ in a detail not shown here. Identical values can stand only once. Like-named read-outs stand apart in the source and are kept apart here.
Legend:
[1] = target: T1, μ opioid receptor (Homo sapiens, UniProt P35372); conditions: cloned human μ receptor; mean (SE), at least three independent experiments
[2] = target: T2, κ opioid receptor (Homo sapiens, UniProt P41145); conditions: for Ke κ, U69,593: cloned human κ receptor, mean (SE), at least three independent experiments; for δ/κ: selectivity for κ relative to δ; for δ/κ / μ/κ: ratio of Ke values; for μ/κ: selectivity for κ relative to μ
[3] = target: T3, δ opioid receptor (Homo sapiens, UniProt P41143); conditions: for Ke δ, DPDPE: cloned human δ receptor; for behaviour at the δ receptor: δ opioid receptor [35S]GTPγS assay, result in words
[4] = tested on: MDCK-MDR1 cells; assay: MDCK-MDR1 permeability; conditions: percent transported from the optical to basal side
[5] = Plasma stability
[6] = S9 stability
[7] = target: hERG channel (Homo sapiens, UniProt Q12809); assay: hERG [3H]astemizole radioligand displacement assay
[8] = target: T3, δ opioid receptor; assay: biochemical
[9] = target: T2, κ opioid receptor; assay: biochemical
[10] = target: T1, μ opioid receptor; assay: biochemical
[11] = Kinetic solubility, 96-well plate assay; type: physicochemical; conditions: for solubility at 90 min: phosphate buffer
[12] = Parallel artificial membrane permeability assay; type: in vitro ADME; conditions: 4 h; for PAMPA pH 5.5, percent transported: pH 5.5, 10 μM; for PAMPA pH 7.4, percent transported: pH 7.4, 10 μM
[13] = target: δ opioid receptor; conditions: read-out: Ki δ; cited from earlier work
[14] = mean (SE), at least three independent experiments

T2 sequence (P41145 whole entry): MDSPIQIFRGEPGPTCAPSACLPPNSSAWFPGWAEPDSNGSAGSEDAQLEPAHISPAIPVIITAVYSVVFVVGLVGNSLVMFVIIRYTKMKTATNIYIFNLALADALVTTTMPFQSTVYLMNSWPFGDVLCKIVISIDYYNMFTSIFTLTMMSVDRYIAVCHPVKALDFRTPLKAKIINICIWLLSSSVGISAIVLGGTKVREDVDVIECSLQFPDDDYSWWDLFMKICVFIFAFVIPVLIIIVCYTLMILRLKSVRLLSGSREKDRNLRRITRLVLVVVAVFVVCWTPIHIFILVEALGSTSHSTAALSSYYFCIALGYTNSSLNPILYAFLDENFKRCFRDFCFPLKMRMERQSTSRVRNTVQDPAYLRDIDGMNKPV
T3 sequence (P41143 whole entry): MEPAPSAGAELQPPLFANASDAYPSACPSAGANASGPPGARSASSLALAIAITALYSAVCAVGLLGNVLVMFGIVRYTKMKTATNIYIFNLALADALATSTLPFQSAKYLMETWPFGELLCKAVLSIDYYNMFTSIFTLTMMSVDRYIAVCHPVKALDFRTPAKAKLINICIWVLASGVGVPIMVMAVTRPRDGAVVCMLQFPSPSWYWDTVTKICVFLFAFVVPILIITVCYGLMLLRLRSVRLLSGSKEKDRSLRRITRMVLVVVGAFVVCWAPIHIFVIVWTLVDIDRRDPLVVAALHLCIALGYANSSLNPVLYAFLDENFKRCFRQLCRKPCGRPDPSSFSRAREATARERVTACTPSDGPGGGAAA
T1 sequence (P35372 whole entry): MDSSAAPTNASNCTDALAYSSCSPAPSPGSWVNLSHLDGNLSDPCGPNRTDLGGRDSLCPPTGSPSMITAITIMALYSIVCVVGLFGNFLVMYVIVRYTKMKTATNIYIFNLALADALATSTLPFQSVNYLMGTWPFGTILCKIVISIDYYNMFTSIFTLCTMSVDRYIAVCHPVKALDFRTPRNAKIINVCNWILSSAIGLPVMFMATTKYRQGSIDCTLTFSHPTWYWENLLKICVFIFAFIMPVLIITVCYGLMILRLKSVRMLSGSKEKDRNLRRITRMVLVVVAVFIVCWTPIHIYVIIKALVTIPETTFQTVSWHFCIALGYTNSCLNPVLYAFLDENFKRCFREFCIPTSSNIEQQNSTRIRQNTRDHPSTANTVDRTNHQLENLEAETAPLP
Sequence of hERG channel (Q12809 whole entry): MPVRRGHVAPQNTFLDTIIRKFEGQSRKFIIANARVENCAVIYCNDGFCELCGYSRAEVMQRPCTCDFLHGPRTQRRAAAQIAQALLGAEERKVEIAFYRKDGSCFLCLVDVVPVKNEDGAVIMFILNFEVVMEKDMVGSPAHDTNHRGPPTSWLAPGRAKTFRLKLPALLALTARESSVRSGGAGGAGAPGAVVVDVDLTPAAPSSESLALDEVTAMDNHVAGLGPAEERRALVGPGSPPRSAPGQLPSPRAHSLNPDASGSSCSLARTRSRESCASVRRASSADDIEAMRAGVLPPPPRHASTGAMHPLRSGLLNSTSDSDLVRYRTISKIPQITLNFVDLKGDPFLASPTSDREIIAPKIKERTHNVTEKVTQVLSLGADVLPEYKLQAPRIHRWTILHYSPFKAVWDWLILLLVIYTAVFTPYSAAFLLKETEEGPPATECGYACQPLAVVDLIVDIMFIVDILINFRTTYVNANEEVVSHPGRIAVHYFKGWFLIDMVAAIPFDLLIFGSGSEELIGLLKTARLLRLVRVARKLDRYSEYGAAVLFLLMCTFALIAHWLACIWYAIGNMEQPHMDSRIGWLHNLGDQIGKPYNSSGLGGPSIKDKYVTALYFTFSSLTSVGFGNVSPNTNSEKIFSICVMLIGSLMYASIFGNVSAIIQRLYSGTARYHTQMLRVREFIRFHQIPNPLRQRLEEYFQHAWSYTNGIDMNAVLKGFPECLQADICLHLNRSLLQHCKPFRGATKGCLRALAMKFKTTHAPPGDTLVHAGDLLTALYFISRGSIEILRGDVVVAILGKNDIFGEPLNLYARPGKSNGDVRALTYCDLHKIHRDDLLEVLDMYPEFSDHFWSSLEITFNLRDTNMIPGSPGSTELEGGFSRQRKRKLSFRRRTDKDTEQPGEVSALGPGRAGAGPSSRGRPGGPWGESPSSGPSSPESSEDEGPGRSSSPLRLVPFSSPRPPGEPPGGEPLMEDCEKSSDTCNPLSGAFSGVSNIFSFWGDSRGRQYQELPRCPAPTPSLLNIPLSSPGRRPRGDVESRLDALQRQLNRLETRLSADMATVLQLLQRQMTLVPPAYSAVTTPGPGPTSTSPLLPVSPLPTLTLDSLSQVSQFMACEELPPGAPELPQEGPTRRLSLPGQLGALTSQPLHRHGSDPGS

Molecule	Ke μ, DAMGO [1]	Ke κ, U69,593 [2]	δ/κ [2]	μ/κ [2]	Ke δ, DPDPE [3, 14]	MDCK, percent transported [4] [%]	plasma stability (% of parent) [5]	S9 stability (% of parent) [6]	also measured
(3R)-N-[(1S)-1-{[(3R,4R)-3,4-Dimethyl-4-phenylpiperidin-1-yl]methyl}-2-methylpropyl]-1,2,3,4-tetrahydroisoquinoline-3-carboxamide [Compound 11]	724 ± 146 nM	16 ± 7 nM	>188	45	–	–	–	–	Ke δ, DPDPE [3]: >3000 nM
(3R)-N^3-[(1S)-1-{[(3R,4R)-3,4-Dimethyl-4-phenylpiperidin-1-yl]methyl}-2-methylpropyl]-1,2,3,4-tetrahydroisoquinoline-3,7-dicarboxamide [Compound 15]	6.70 ± 2.1 nM	0.041 ± 0.006 nM	2700	163	111 ± 29 nM	–	–	–	–
(3R)-N-[(1S)-1-{[(3R,4R)-4-(3-Bromophenyl)-3,4-dimethylpiperidin-1-yl]methyl}-2-methylpropyl]-7-hydroxy-1,2,3,4-tetrahydroisoquinoline-3-carboxamide [Compound 7]	6.56 ± 0.44 nM	0.268 nM and 0.268 ± 0.01 nM	2200	25	594 ± 160 nM	–	–	–	–
CC(C)[C@@H](CN1CC[C@@](C)(c2ccccc2)[C@@H](C)C1)NC(=O)[C@H]1Cc2ccc(O)cc2CN1 [Compound 4, (3R)-N-[(1S)-1-{[(3R,4R)-3,4-Dimethyl-4-phenylpiperidin-1-yl]methyl}-2-methylpropyl]-7-hydroxy-1,2,3,4-tetrahydroisoquinoline-3-carboxamide]	–	–	–	–	–	27	67.0 % of parent	82.0 % of parent	–
(3R)-N-[(1S)-1-{[(3R,4R)-4-(3-Aminophenyl)-3,4-dimethylpiperidin-1-yl]methyl}-2-methylpropyl]-7-hydroxy-1,2,3,4-tetrahydroisoquinoline-3-carboxamide [Compound 8]	10.6 nM and 10.6 ± 3.6 nM	0.25 ± 0.09 nM	7600	42	1899 ± 657 nM	–	–	–	–
(3R)-N-[(1S)-1-{[(3R,4R)-4-(3-Hydroxyphenyl)-3,4-dimethylpiperidin-1-yl]methyl}-2-methylpropyl]-7-1,2,3,4-tetrahydroisoquinoline-3-carboxamide [Compound 9]	16 ± 5 nM	4.3 ± 2 nM	37	3.7	158 nM and 158 ± 49 nM	–	–	–	–
CC(C)[C@@H](CN1CC[C@@](C)(c2cccc(C(N)=O)c2)[C@@H](C)C1)NC(=O)[C@H]1Cc2ccc(C(N)=O)cc2CN1 [Compound 14, (3R)-N^3-[(1S)-1-{[(3R,4R)-4-(3-Carbamoylphenyl)-3,4-dimethylpiperidin-1-yl]methyl}-2-methylpropyl]-1,2,3,4-tetrahydroisoquinoline-3,7-dicarboxamide]	–	–	4700	230	–	14	55.3 % of parent	90.9 % of parent	Ki [7]: > 10 µM; Kb [8]: 517 ± 52 nM; Kb [9]: 0.11 ± 0.02 nM; Kb [10]: 25.3 ± 7.89 nM; solubility at pH 7.4 ([11]; pH 7.4): > 20%; solubility at 90 min ([11]; pH 3): 100 µM (≈ 52 µg/mL); solubility at 90 min ([11]; pH 7.4): 81 µM (≈ 42.1 µg/mL); PAMPA pH 5.5, percent transported [12]: 36.4%; PAMPA pH 7.4, percent transported [12]: 32.2%
CC(C)[C@@H](CN1CC[C@@](C)(c2cccc(O)c2)[C@@H](C)C1)NC(=O)[C@H]1Cc2ccc(O)cc2CN1 [JDTic, (3R)-1,2,3,4-tetrahydro-7-hydroxy-N-[(1S)-1-[[(3R,4R)-4-(3-hydroxyphenyl)-3,4-dimethyl-1-piperidinyl]methyl]-2-methylpropyl]-3-isoquinolinecarboxamide, reference compound]	–	–	–	–	–	11	97 % of parent	76 % of parent	–
C[C@H]1CN(CC[C@H](O)C2CCCCC2)CC[C@@]1(C)c1cccc(O)c1 [LY255582]	–	–	–	–	–	–	–	–	Ki [13]: 4.8 nM
(3R)-N-[(1S)-1-{[(3R,4R)-4-(3-Chlorophenyl)-3,4-dimethylpiperidin-1-yl]methyl}-2-methylpropyl]-7-hydroxy-1,2,3,4-tetrahydroisoquinoline-3-carboxamide [Compound 6]	6.81 ± 2.6 nM	0.039 ± 0.001 nM	17600	175	685 ± 99 nM	–	–	–	–
(3R)-7-Fluoro-N-[(1S)-1-{[(3R,4R)-4-(3-Fluorophenyl)-3,4-dimethylpiperidin-1-yl]methyl}-2-methylpropyl]-1,2,3,4-tetrahydroisoquinoline-3-carboxamide [Compound 12]	360 ± 63 nM	2.22 nM and 2.22 ± 0.47 nM	–	162	–	–	–	–	behaviour at the δ receptor [3]: weak inverse agonist
(3R)-7-Fluoro-N-[(1S)-1-{[(3R,4R)-4-(3-Hydroxyphenyl)-3,4-dimethylpiperidine-1-yl]methyl}-2-methylpropyl]-1,2,3,4-tetrahydroisoquinoline-3-carboxamide [Compound 10]	7.7 ± 0.9 nM	2.20 ± 0.47 nM	–	3.5	–	–	–	–	behaviour at the δ receptor [3]: weak inverse agonist
CC(C)[C@@H](CN1CC[C@@](C)(c2cccc(O)c2)[C@@H](C)C1)NC(=O)[C@H]1Cc2ccc(C(N)=O)cc2CN1 [Compound 13, (3R)-N^3-[(1S)-1-{[(3R,4R)-4-(3-Hydroxyphenyl)-3,4-dimethylpiperidin-1-yl]methyl}-2-methylpropyl]-1,2,3,4-tetrahydroisoquinoline-3,7-dicarboxamide]	–	–	6550	355	–	17	84.7 % of parent	91.5 % of parent	Ki [7]: > 10 µM; Kb [8]: 131 ± 23 nM; Kb [9]: 0.02 ± 0.005 nM; Kb [10]: 7.09 ± 2.58 nM; solubility at pH 7.4 ([11]; pH 7.4): > 20%; solubility at 90 min ([11]; pH 3): 77 µM (≈ 37.9 µg/mL); solubility at 90 min ([11]; pH 7.4): 38 µM (≈ 18.7 µg/mL); PAMPA pH 5.5, percent transported [12]: 39.1%; PAMPA pH 7.4, percent transported [12]: 28.3%

Reference: paper PMC4161151 (Journal of Medicinal Chemistry, 2014)
